# Measured values taken from paper PMC9238271, “The quorum sensing peptide EntF* promotes colorectal cancer metastasis in mice: a new factor in the host-microbiome interaction” (BMC Biology, 2022).
# Tests used:
# [1] = EntF production in germ-free mice: EntF* in colon content and serum; type: in vivo, germ-free female C57BL6 mice
# Method: (§1) Fifty microliters of serum were mixed with 150 μL 0.5% formic acid in acetonitrile. After sonication for 5 min, samples were vortexed for 5 s, then heated for 30 s at 100 °C. The solution was vortexed and centrifuged for 20 min at 20,000g at 4 °C. The supernatant was purified using solid phase extraction (SPE) on HyperSep C18 plates (Thermo Fisher Scientific, Belgium), previously conditioned with acetonitrile and equilibrated with 75% acetonitrile in water, containing 0.375% formic acid. After loading 150 μL of each sample, 120 μL eluent were collected and organic solvents evaporated using nitrogen (1 L/min) for 5 min. The resulting samples were further diluted with 30 μL of BSA-based anti-adsorption solution, and analyzed by LC-MS.
# For EntF and EntF* colon content analysis, 50 mg of colon content were suspended in 100 μL of a 2% hydrochloric acid solution, vortexed and sonicated for 30 s. The suspension was centrifuged for 1 min at 3000g, and 50 μL of the supernatant was heated at 100 °C for 1 min and cooled on ice for 1 min. Samples were centrifuged again for 1 min at 10,000g, and 30 μL of supernatant was added to a 900 μL of a 3% DMSO solution in acetonitrile acidified with 0.1% formic acid (equilibration solution). Nine hundred microliters of the diluted samples was loaded on a HILIC amide SPE MonoSpin column previously conditioned with acetonitrile and equilibrated with the equilibration solution. Samples were eluted using a mixture of 75/20/5 (V/V/V) H2O/acetonitrile/DMSO acidified with 0.1% formic acid.
# (§2) EntF* was detected and quantified on a Waters Acquity® UPLC H-class system, connected to a Waters Xevo™ TQ-S triple quadrupole mass spectrometer with electrospray ionization (operated in positive ionization mode). Autosampler tray and column oven were kept at 10 ± 5 °C and 60 ± 5 °C, respectively. Chromatographic separation was achieved on a Waters Acquity® UPLC BEH Peptide C18 column (300 Å, 1.7 μm, 2.1 mm × 100 mm). The mobile phases consisted of 93/2/5 water/acetonitrile/DMSO (V/V/V) containing 0.1% formic acid (mobile phase A) and 2/93/5 water/acetonitrile/DMSO (V/V/V) containing 0.1% formic acid (mobile phase B), and the flow rate was set to 0.5 mL/min. A 10-μL aliquot from each sample was injected. The gradient program started with 80% of mobile phase A for 1 min, followed by a linear gradient to 40% of mobile phase A for 3.5 min. Gradient was then changed to 14.2% mobile phase A at 5 min, followed by a 1 min equilibration, before starting conditions were applied. EntF* retention time was between 4.25 and 4.45 min.
# Mice were obtained from the Ghent Germfree and Gnotobiotic mouse facility (LA1400637), maintained in a sterile environment under controlled conditions (light–dark cycle with light from 7:00 h to 17:00 h, temperature 21–25 °C, and humidity 45–65%). Twelve germ-free female C57BL6 mice were divided into 3 groups and each group (n = 4) was kept in a separate cage. At day 0, the placebo group was treated with the cell medium (BHI), the control group received a mixture of 3 EntF-negative E. faecium strains (NCIMB 10415; W54 and LMG S-28935 each 10^8 CFU per strain) suspended in 300 μL of BHI, while the test group received a mixture of 3 EntF-producing E. faecium strains (LMG 23236; T-110 and ATCC 8459 each 10^8 CFU/strain) suspended in 300 μL of BHI. […] Serum samples were stored at − 80 °C and subsequently analyzed for the presence of EntF* using LC1-MS1. […] Samples were further analyzed for the presence of EntF* using LC1-MS1.
# [2] = EntF* in serum of untreated mice, RP-UPLC-TQ-MS (LC1-MS1); type: in vivo, C57BL/6 mice; conditions: for EntF* concentration (pM) LC1-MS1: mouse serum, LOQ = 100 pM, below: set at 0
# Method: After a 30 min incubation on ice, blood was centrifuged at 1000g for 10 min at room temperature. The supernatant (serum) was then transferred to fresh tubes and stored at − 35 °C until use.
# as §1, §2
# An optimized capillary voltage of 3.00 kV, a cone voltage of 20.00 V, and a source offset of 50.0 V were used. Acquisition was done in the MRM mode. The selected precursor ion for EntF* was m/z 865.7 with two selected product ions at m/z 202.08 (36 eV, b2 fragment) as quantifier and m/z 315.17 (31 eV, b3 fragment) as qualifier.
# A sample was considered positive for the presence of EntF* when the following criteria were met: correct retention time, quantifier/qualifier peak area ratio between 2.0 and 4.0, both quantifier and qualifier peaks with a signal-to-noise ratio > 3.0, and a peptide concentration > 100 pM.
smiles,measurement,setting,value
"CC(C)C[C@@H]1NC(=O)[C@H](CO)NC(=O)[C@H](Cc2ccccc2)NC(=O)[C@H](C(C)C)NC(=O)[C@@H](NC(=O)[C@H](CCC(=O)O)NC(=O)[C@@H](NC(=O)[C@H](CC(C)C)NC(=O)[C@H](CC(N)=O)NC(=O)[C@@H](N)CO)C(C)C)CSSC[C@@H](C(=O)N[C@@H](CC(N)=O)C(=O)O)NC(=O)[C@H](CCCCN)NC(=O)[C@H](CCCCN)NC(=O)[C@H](Cc2ccccc2)NC1=O (single isomer, unassigned) [EntF*]",tissue level at time molar at 96 h,"[1]; female, C57BL6, mouse, colon content, germ-free mice four days after oral gavage of 3 EntF-producing E. faecium strains (10^8 CFU/strain), LoD 1.9 pmol/g, LC1-MS1, mean ± SEM, n = 4, read-out: EntF* concentration in colon content",0.01 ± 0.0032 nmol/g
same,EntF* in serum of the test group,"[1]; germ-free mice four days after oral gavage of EntF-producing E. faecium strains, LC1-MS1",detected
same,"EntF* in feces, Tot. Av.","[1]; gnotobiotic mice, feces, mean of 4 test mice",9.726 pmol/g
same,"EntF* serum concentration, Maximum Likelihood Function estimate ^µ","[1]; gnotobiotic mice, serum, 4 test mice, censored at yL 80 pM",90.7384 pM
same,"EntF* serum concentration, average","[1]; gnotobiotic mice, serum, average of the 3 test mice above LoD",97.3333 pM
same,"in vivo exposure, average",[2]; All mice average (<LoD => 0),0.019 nM
same,"in vivo exposure, Exposure","[2]; All mice average (<LoD => 0), time 1440 min",27.5 nM·min
same,"Concentration (pM), average","[2]; Natural in vivo exposure, average of all samples, < LOD: set at 0 pM",19.1243 pM
same,Concentration (pM),"[2]; Natural in vivo exposure, sample 10809_069_205",107.331 pM
same,Concentration (pM),"[2]; Natural in vivo exposure, sample 10809_069_269",431.362 pM
same,Concentration (pM),"[2]; Natural in vivo exposure, sample 10809_069_276",567.385 pM
same,Concentration (pM),"[2]; Natural in vivo exposure, sample 10809_069_296",136.998 pM
same,"EntF* concentration in mouse serum, Average (pM), All","[2]; all samples (n=35), samples < LOQ counted as zero",328.6 pM
same,amount of EntF* detected in the serum of positive mice,"[2]; endogenous level, six of 35 untreated C57BL/6 mice, LOQ 100 pM, LC1-MS1",above 100 pM
same,EntF* concentration (pM) LC1-MS1,[2]; sample 20181011S4,389 pM
same,EntF* concentration (pM) LC1-MS1,[2]; sample 20181011S7,2146 pM
same,EntF* concentration (pM) LC1-MS1,[2]; sample 20181011S9,3127 pM
same,EntF* concentration (pM) LC1-MS1,[2]; sample 20181011S12,2489 pM
same,EntF* concentration (pM) LC1-MS1,[2]; sample 20181011S16,3148 pM
same,EntF* concentration (pM) LC1-MS1,[2]; sample 20181011S18,200 pM
